This is an account of results in PMC9145885, “Synthesis of PP2A-Activating PF-543 Derivatives and Investigation of Their Inhibitory Effects on Pancreatic Cancer Cells” (Molecules, 2022).

For orientation: pIC50 means −log10 of the IC50, conventionally taken in molar units.

For one data set, the system named is SK1. On the set-up: method as in PMID 30889352. The conditions noted are these: cited from earlier work.
The next data set has as its system SK2. Set-up: method as in PMID 30889352. The conditions noted are these: cited from earlier work.
The next data set relates to PP2A. Put plainly: PP2A immunoprecipitation phosphatase activity assay in MIA PaCa2 cells. It is filed as cell-based, human. The conditions noted are these: 20 µM. How it is done:
PP2A activity assay was a PP2A immunoprecipitation phosphatase assay kit operated according to the manufacturer’s instruction. Briefly, a prepared protein aliquot was incubated with anti-PP2A subunit C-antibody and protein A agarose slurry at 4 °C for 2–3 h, and then phosphopeptide was added. Samples were recorded by Thermo Scientific Multiskan GO.

The nature of data set [1]: In vitro metabolic stability in human liver microsomes. The conditions noted are these: human liver microsomes 0.5 mg/mL, NADPH, 30 min. A general note: Liver microsomes are vesicles of endoplasmic reticulum, rich in cytochrome P450 enzymes.
Method: Microsomal incubations were conducted in triplicate in 0.1 M potassium phosphate buffer (pH 7.4) in a clean 1.5 mL Eppendorf tube. […] The final incubation mixtures contained 0.5 mg/mL HLM, 0.1 M potassium phosphate buffer (pH 7.4), NADPH regenerating system (1 mM NADPH, 10 mM MgCl2). HLM was added, and the mixture was pre-incubated at 37 °C in a shaking incubator at approximately 350 rpm for 5 min under a Thermo mixer (Eppendorf., Hamburg, Germany). Reactions were initiated by the addition of 1 mM NADPH and were then quenched by adding 40 µL of ice-cold acetonitrile containing 10 µM chlorpropamide (CPP) as an internal standard at 0 and 30 min. The incubation mixtures were then centrifuged at 15,000 g for 5 min at 4 °C. A 2 µL aliquot of the supernatant was directly injected into the LC-MS/MS system. The LC-MS/MS system consisted of the Nexera XR HPLC system (Shimadzu Co., Kyoto, Japan) coupled to the TSQ Vantage triple quadrupole mass spectrometer equipped with Xcalibur version 1.1.1 (Thermo Fisher Scientific Inc., Waltham, MA, USA).
Data set [2] has as its system MIA PaCa2 cells. The data set can be described thus: Cell viability / cytotoxic effect in MIA PaCa2 cells (EZ-CYTOX/MTT). It is filed as cell-based. The conditions noted are these: Homo sapiens, MIA PaCa-2, 2.5-40 µM, 24 h, relative IC50. The method, then: The human pancreatic ductal epithelial cell lines MIA Paca2, PANC-1 were maintained in DMEM media with 10% fetal bovine serum (FBS), 100 U/mL penicillin, and 100 µg/mL streptomycin at 37 °C in a humidified 5% CO2/95% air atmosphere. Cells were seeded in 96-well plates at a density of 3000 cells/100 μL/well and incubated for 24 h. The cells were then incubated in a culture medium containing synthetic compounds. Following 24 h of incubation, the cell viability was determined using an EZ-CYTOX kit (DaeilLab Service, Seoul, Korea) according to the manufacturer’s protocol (n = 12).
Supplementary Figure 1. Relative IC50 determination of Compound 5, Compound 10, PF-543, and FTY720. MIAPaCa2 cells were seeded in 96 well plates and treated with 2.5-40 µ M of compounds for 24h. Cell viability was assessed using MTT assay, and Relative IC50 was determined using Graph pad prism software. The result is representative of three independent experiments and data are presented as mean ± SD. *** p < 0.001 compared with non-treated […]
(1 picture or pasted object on this page, not shown here)

The nature of data set [3]: In vitro metabolic stability in mouse liver microsomes. The class given is in vitro ADME. The conditions noted are these: NADPH, 30 min.
The subject of data set [4] is MIA PaCa2 cells. The data set can be described thus: Western blot of apoptosis-related proteins. It is filed as cell-based, human. The note with it: 20 µM, 24 h. How it is done: Cell extracts from MIA Paca2 cells were determined by BCA Protein Assay Kit (Thermo Scientific) according to the manufacturer’s instructions. Separate 20–30 μg protein by electrophoresis using Tris-Glycine gel and transfer to PVDF membranes. After transferring and blocking, the membrane was incubated with the primary antibody in TBS-T buffer containing 5% skim milk overnight at 4 °C. Then, the membrane was washed three times with TBS-T, and the secondary antibody was incubated. Chemiluminescence detection was performed using a Western blot detection kit (Milipore). Bax, Bcl-2, Caspase-3, PARP, AKT, p-AKT, ERK, and p-ERK were used for Western blot analysis. Internal controls were detected using Actin antibody.
(In general: In western blotting, separated proteins are transferred to a membrane and probed.)

Data set [5] concerns MIA PaCa2 cells. The data set can be described thus: Mitochondrial membrane potential, JC-10 staining. It is filed as cell-based, human. The conditions noted are these: 20 µM. The method, then: To measure the degree of MMP change of cancer cells, 20 μM JC-10 dye and assay buffer (Enzo Co., New York, NY, USA) were added to the cells cultured for 24 h and mixed until the cells were completely dissolved. Subsequently, the cells were incubated in the dark for 30 min at room temperature. The solutions were protected from light and analyzed by using flow cytometry.

Data set [6] has as its system MIA PaCa2 cells. Put plainly: Ceramide, S1P and sphingosine levels by ELISA in MIA PaCa2 cells. The class given is cell-based, human. The conditions noted are these: 20 µM. The method, then: Ceramide, sphingosine, and S1P level were performed as protocols recommended by Mybiosource using the ceramide, sphingosine, and S1P ELISA kit (MyBiosource Inc., San Diego, CA, USA). Ceramide and sphingosine S1P measurements were tested with proteins that were centrifuged and collected by repeating freezing and thawing from three to five times after adding PBS to cells.

A short description of data set [7]: In vitro metabolic stability in rat liver microsomes. The class given is in vitro ADME. The conditions noted are these: NADPH, 30 min.
The nature of data set [8]: In vitro metabolic stability in dog liver microsomes. It is filed as in vitro ADME. The note with it: NADPH, 30 min.
The target in a further data set is T1, SPHK2 (Homo sapiens, UniProt Q9NRA0).
T1 construct: purchased Thermo Fisher Scientific
T1 sequence (Q9NRA0 1-654): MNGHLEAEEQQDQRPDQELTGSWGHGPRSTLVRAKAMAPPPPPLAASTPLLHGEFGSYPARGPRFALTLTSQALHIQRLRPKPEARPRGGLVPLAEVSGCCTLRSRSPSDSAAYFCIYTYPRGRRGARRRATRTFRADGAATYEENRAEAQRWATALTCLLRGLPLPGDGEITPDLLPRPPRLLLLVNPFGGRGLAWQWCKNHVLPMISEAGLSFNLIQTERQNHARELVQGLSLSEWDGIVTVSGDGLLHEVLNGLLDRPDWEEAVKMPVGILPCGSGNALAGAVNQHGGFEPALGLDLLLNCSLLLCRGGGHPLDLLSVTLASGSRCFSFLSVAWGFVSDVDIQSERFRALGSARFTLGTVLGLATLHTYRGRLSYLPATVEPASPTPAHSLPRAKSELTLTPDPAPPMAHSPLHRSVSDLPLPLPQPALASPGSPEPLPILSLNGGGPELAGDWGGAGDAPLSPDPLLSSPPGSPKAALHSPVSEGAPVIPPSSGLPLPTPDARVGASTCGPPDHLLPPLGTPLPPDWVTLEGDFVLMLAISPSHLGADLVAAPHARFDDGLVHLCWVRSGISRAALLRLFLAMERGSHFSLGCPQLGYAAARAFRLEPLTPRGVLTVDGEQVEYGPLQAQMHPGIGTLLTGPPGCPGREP
The data set can be described thus: Sphingosine kinase 2 activity assay (Adapta screening system). The class given is biochemical. The note with it: 20 µM compound. The method, then: (§1) SK 1/2 activity was measured using 20 μM PF-543 and compounds 1–10 using the AdaptaTM screening system (Thermo Fisher Scientific system). Sphingosine kinase 1 activity assay used 0.04–0.16 ng SPHK1, 50 μM sphingosine lipid substrate in 32.5 mM HEPES pH 7.5, 0.005% BRIJ 35, 5 mM MgCl2, 0.5 mM EGTA. Sphingosine kinase 2 activity assay detected 35–140 ng SPHK2, 50 μM sphingosine lipid substrate in 32.5 mM HEPES pH 7.5, 0.5 mM EGTA, and 1.5 mM MgCl2.

Data set [9] has as its system MIA PaCa2 cells. Put plainly: Annexin-V apoptosis assay (flow cytometry). The note with it: 20 µM. It is filed as cell-based, human. How it is done: Cell apoptosis assay was determined using annexin V- FITC and propidium iodide (PI) staining, as described in manufacturer instruction (BioBud, Gyeonggi-do, Korea). Briefly, the cells were resuspended in binding buffer and then incubated with annexin-V-FITC and propidium iodide at room temperature. After incubation, stained cells were analyzed by MACSQuant Analyzer 10 Flow Cytometer (Miltenyi Biotec, Bergisch Gladbach, Germany). The experiment was conducted three times independently (n = 6).
A general note: Flow cytometry measures light scatter and fluorescence of single cells or particles in a stream.

The target in a further data set is T2, SPHK1 (Homo sapiens, UniProt Q9NYA1).
T2 construct: purchased Thermo Fisher Scientific
T2 sequence (Q9NYA1 whole entry): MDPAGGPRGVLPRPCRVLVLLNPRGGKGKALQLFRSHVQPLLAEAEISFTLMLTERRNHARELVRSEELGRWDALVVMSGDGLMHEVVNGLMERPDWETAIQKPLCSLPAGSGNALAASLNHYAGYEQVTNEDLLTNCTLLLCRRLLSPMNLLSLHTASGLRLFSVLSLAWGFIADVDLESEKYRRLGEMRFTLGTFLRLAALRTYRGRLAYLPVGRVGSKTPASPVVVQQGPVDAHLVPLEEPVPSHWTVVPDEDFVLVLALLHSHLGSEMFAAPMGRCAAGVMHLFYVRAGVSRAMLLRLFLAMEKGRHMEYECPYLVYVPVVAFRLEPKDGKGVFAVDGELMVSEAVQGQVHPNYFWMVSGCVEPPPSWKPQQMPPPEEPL
Put plainly: Sphingosine kinase 1 activity assay (Adapta screening system). The note with it: 20 µM compound. The class given is biochemical. The method, then:
as §1

The structures appear in SMILES notation. pIC50: −log10 of the molar value.

As for `OC[C@H]1CCCN1Cc1ccc(COc2cccc(OCc3ccc(Cl)cc3)c2)cc1` [compound 55], the results for the pIC50 in the data set with SK1 and with SK2 were 5.38 and 7.39, respectively.

Take `Cc1cc(Cn2cc(-c3ccccc3)nn2)cc(OCc2ccc(CN3CCC(CO)CC3)cc2)c1` [Compound 5, (1-(4-((3-Methyl-5-((4-phenyl-1H-1,2,3-triazol-1-yl)methyl)phenoxy)methyl)benzyl)piperidin-4-yl)methanol]: in the data set with PP2A, the PP2A activity entry is recorded as “little effect on PP2A”. Moreover, the “In vitro stability, Human (%)” value in data set [1] came to 45.4%. Moreover, the negative-log IC50 (pIC50) in the data set on MIA PaCa2 cells [2] was 4.58. Besides, the “In vitro stability, Mouse (%)” value in [3] was 17.9%. Moreover, the “expression of pro-apoptotic proteins (cleaved PARP, cleaved caspase-3)” value in the data set on MIA PaCa2 cells [4] is on record as “insignificant compared to the compound 10 treatment group”. In the data set on MIA PaCa2 cells [5], the “mitochondrial membrane potential (ratio of red to green fluorescence, JC-10)” value was “significantly reduced the mitochondrial membrane potential”. The S1P level result with MIA PaCa2 cells [6] is “increased the S1P level”. Further, the “In vitro stability, Rat (%)” value in [7] is 27.6%. Besides, the “In vitro stability, Dog (%)” value in [8] was 40.8%.

With `CCCCCCCCc1cn(Cc2cc(C)cc(OCc3ccc(CN4CCC(CO)CC4)cc3)c2)nn1` [Compound 10, (1-(4-((3-Methyl-5-((4-octyl-1H-1,2,3-triazol-1-yl)methyl)phenoxy)methyl)benzyl)piperidin-4-yl)methanol], in the data set with PP2A, the PP2A activity entry is recorded as “activated PP2A”. Besides, the SK2-inhibitory effect result at SPHK2 is “inhibited both SK1 and SK2”. Further, in data set [1], the “In vitro stability, Human (%)” value is recorded as 66.7%. Moreover, the “apoptotic effect (annexin-V)” value with MIA PaCa2 cells [9] is on record as “high apoptotic effect”. The pIC50 in the data set on MIA PaCa2 cells [2] is 4.95. The “In vitro stability, Mouse (%)” value in data set [3] is recorded as 33.3%. Moreover, in the data set on MIA PaCa2 cells [4], the “expression of anti-apoptotic protein Bcl-2” value is reported as “Bcl-2 decreased”; the “expression of pro-apoptotic proteins (cleaved PARP, cleaved caspase-3)” value is “cleaved form of PARP and caspase-3 increased”. Also, in the data set on MIA PaCa2 cells [5], the “mitochondrial membrane potential (ratio of red to green fluorescence, JC-10)” value was “significantly reduced the mitochondrial membrane potential”. Moreover, in the data set with MIA PaCa2 cells [6], the S1P level result was “reduced the levels of S1P and sphingosine”; the ceramide level entry is “the ceramide level increased”; the sphingosine level entry is “reduced the levels of S1P and sphingosine”. In addition, the “In vitro stability, Rat (%)” value in data set [7] amounted to 53.3%. The “In vitro stability, Dog (%)” value in data set [8] was 58.3%. The SK1-inhibitory effect entry at SPHK1 was “inhibited both SK1 and SK2”.

Consider `CCCCCCCCc1ccc(CCC(N)(CO)CO)cc1` [FTY720, reference compound], for which the pIC50 in the data set on MIA PaCa2 cells [2] was 5.02.

Regarding `Cc1cc(CS(=O)(=O)c2ccccc2)cc(OCc2ccc(CN3CCC[C@@H]3CO)cc2)c1` [PF-543], the PP2A activity result in the data set on PP2A is reported as “also activated PP2A”. Also, the “In vitro stability, Mouse (%)” value in [3] was found to be 7.5%. For the same molecule, the “mitochondrial membrane potential (ratio of red to green fluorescence, JC-10)” value in the data set on MIA PaCa2 cells [5] is given as “significantly reduced the mitochondrial membrane potential”. Also, in the data set with MIA PaCa2 cells [6], the S1P level result is listed as “reduce the level of S1P”; the ceramide level result is “did not significantly change the levels of ceramide and sphingosine”; the sphingosine level entry was “did not significantly change the levels of ceramide and sphingosine”. The “In vitro stability, Rat (%)” value in data set [7] turned out to be 4.7%. Moreover, the “In vitro stability, Dog (%)” value in data set [8] is recorded as 2.9%.
